Structures can show the parent of a compound that is named as a salt.

One test has as its system Plasmodium falciparum parasite. Put plainly: Whole cell assay: whole cell activity against the parasite. It counts as cell-based.
Details: not given
The text has this:
Compounds can be evaluated for whole cell actvity against the Plasmadium falciparum parasite according to the procedure described in Sijwali S. and Rosenthal P. J., (2004) Proceedings of the National Academy of Sciences of the United States of America (PNAS) 101(13), 4384-4389 (see in particular "Measurement of Parasite Growth rates and Inhibitor Sensitivity" on page 4385); IC50 values can be calculated as described in Singh A. and Rosenthal P. J., (2001) Antimicrobial Agents and Chemotherapy 45(3), 949-951 (see in particular page 950, first column); synchronised parasites can be prepared as described in Divo A. A. et al., (1985) Protozool. 32, 59-64. 3) In vitro models to evaluate activity against bone metastasis
One may read the IC50 as the concentration at which inhibition is half-maximal. A high value points to weaker potency in that assay. In the case of `CN1CCC(CN2CCN(Cc3ccc(C(=O)NN(c4nc(C#N)ncc4Br)C4CCCC4)cc3)CC2)CC1` [Example 7, N'-(5-bromo-2-cyano-4-pyrimidinyl)-N'-cyclopentyl-4-({4-[(1-methyl-4-piperidinyl)methyl]-1-piperazinyl}methyl)benzohydrazide trifluoroacetate], the IC50 was 1 to 2.5 nM.

Still in this test, the particulars now being: Plasmodium falciparum.
`C[C@H]1CCC[C@H]1N(NC(=O)c1ccc(CN2CCN(C)CC2)cc1)c1nc(C#N)ncc1Br` (racemic) [Example 2, N'-(5-bromo-2-cyano-4-pyrimidinyl)-N'-[(1R,2S+1S,2R)-2-methylcyclopentyl]-4-[(4-methyl-1-piperazinyl)methyl]benzohydrazide trifluoroacetate] came in with an IC50 of 15 to 150 nM.

On to `CN1CCC(CN2CCN(Cc3ccc(C(=O)NN(c4nc(C#N)ncc4Br)C4CCCCC4)cc3)CC2)CC1` [Example 19, N'-(5-bromo-2-cyano-4-pyrimidinyl)-N'-cyclohexyl-4-({4-[(1-methyl-4-piperidinyl)methyl]-1-piperazinyl}methyl)benzohydrazide trifluoroacetate], for which the IC50 was 2.5 to 15 nM.

The molecule `CC1CCC(N(NC(=O)c2ccc(CN3CCC(N4CCN(C)CC4)CC3)cc2)c2nc(C#N)ncc2Br)C1` (stereo not shown) [Example 4, N'-(5-bromo-2-cyano-4-pyrimidinyl)-N'-(3-methylcyclopentyl)-4-{[4-(4-methyl-1-piperazinyl)-1-piperidinyl]methyl}benzohydrazide trifluoroacetate] registered an IC50 of less than 1 nM.

In turn, `CN1CCN(C2CCN(Cc3cccc(C(=O)NN(c4nc(C#N)ncc4Br)C4CCCCC4)c3)CC2)CC1` [Example 20, N'-(5-bromo-2-cyano-4-pyrimidinyl)-N'-cyclohexyl-3-{[4-(4-methyl-1-piperazinyl)-1-piperidinyl]methyl}benzohydrazide trifluoroacetate] yielded an IC50 of 2.5 to 15 nM.

For the molecule `CCN(CC)Cc1ccc(C(=O)NN(c2nc(C#N)ncc2Cl)C2CCCC2)cc1` [Example 66, N'-(5-chloro-2-cyano-4-pyrimidinyl)-N'-cyclopentyl-4-[(diethylamino)methyl]benzohydrazide trifluoroacetate], the half-maximal inhibitory concentration (IC50) fell in the range of 15 to 150 nM.

`CN1CCN(C2CCN(Cc3ccc(C(=O)NN(c4nc(C#N)ncc4Br)C4CCCC4)cc3)CC2)CC1` [Example 10, N'-(5-bromo-2-cyano-4-pyrimidinyl)-N'-cyclopentyl-4-{[4-(4-methyl-1-piperazinyl)-piperidinyl]methyl}benzohydrazide trifluoroacetate] yielded an IC50 of 2.5 to 15 nM.

Regarding `CN1CCN(C2CCN(Cc3ccc(C(=O)NN(c4nc(C#N)ncc4Cl)C4CCOCC4)cc3)CC2)CC1` [Example 34, N'-(5-Chloro-2-cyano-4-pyrimidinyl)-4-{[4-(4-methyl-1-piperazinyl)-1-piperidinyl]methyl}-N'-(tetrahydro-2H-pyran-4-yl)benzohydrazide trifluoroacetate], the IC50 lay in the range of 2.5 to 15 nM.

In turn, `N#Cc1ncc(Cl)c(N(NC(=O)c2ccc(CN3CCC(O)CC3)cc2)C2CCCC2)n1` [Example 70, N'-(5-chloro-2-cyano-4-pyrimidinyl)-N'-cyclopentyl-4-[(4-hydroxy-1-piperidinyl)methyl]benzohydrazide trifluoroacetate] came in with a half-maximal inhibitory concentration (IC50) of 15 to 150 nM.

The molecule `N#Cc1ncc(Br)c(N(NC(=O)c2cccc(CN3CCC(N4CCOCC4)CC3)c2)C2CCCC2)n1` [Example 13, N'-(5-bromo-2-cyano-4-pyrimidinyl)-N'-cyclopentyl-3-{[4-(4-morpholinyl)-1-piperidinyl]methyl}benzohydrazide trifluoroacetate] yielded a half-inhibitory concentration (IC50) of 15 to 150 nM.

The molecule `CN1CCC(CN2CCN(Cc3cccc(C(=O)NN(c4nc(C#N)ncc4Br)C4CCCCC4)c3)CC2)CC1` [Example 28, N'-(5-bromo-2-cyano-4-pyrimidinyl)-N'-cyclohexyl-3-({4-[(1-methyl-4-piperidinyl)methyl]-1-piperazinyl}methyl)benzohydrazide trifluoroacetate] gave an IC50 of 2.5 to 15 nM.

In turn, `CC1CCC(N(NC(=O)c2ccc(CN3CCN(CC4CCN(C)CC4)CC3)cc2)c2nc(C#N)ncc2Br)C1` (mixture of isomers) [Example 5, N'-(5-bromo-2-cyano-4-pyrimidinyl)-N'-(3-methylcyclopentyl)-4-({4-[(1-methyl-4-piperidinyl)methyl]-1-piperazinyl}methyl)benzohydrazide trifluoroacetate] came in with an IC50 of 2.5 to 15 nM.

`CCCN1CCN(c2ccc(C(=O)NN(c3nc(C#N)ncc3Br)C3CCCCC3)cc2)CC1` [Example 80, N'-(5-bromo-2-cyano-4-pyrimidinyl)-N'-cyclohexyl-4-(4-propyl-1-piperazinyl)benzohydrazide trifluoroacetate] registered an IC50 of 15 to 150 nM.

As to `CN1CCN(c2cccc(C(=O)NN(c3nc(C#N)ncc3Cl)C3CCCC3)n2)CC1` [Example 78, N'-(5-chloro-2-cyano-4-pyrimidinyl)-N'-cyclopentyl-6-(4-methyl-1-piperazinyl)-2-pyridinecarbohydrazide trifluoroacetate], the IC50 was in the range of 15 to 150 nM.

Regarding `CN(Cc1ccc(C(=O)NN(c2nc(C#N)ncc2Cl)C2CCCC2)cc1)C(C)(C)Cc1ccccc1` [Example 71, N'-(5-chloro-2-cyano-4-pyrimidinyl)-N'-cyclopentyl-4-{[(1,1-dimethyl-2-phenylethyl)(methyl)amino]methyl}benzohydrazide trifluoroacetate], the IC50 was in the range of 15 to 150 nM.

`CN1CCN(c2ccc(C(=O)NN(c3nc(C#N)ncc3Cl)C3CCCC3)cc2)CC1` [Example 52, N'-(5-chloro-2-cyano-4-pyrimidinyl)-N'-cyclopentyl-4-(4-methyl-1-piperazinyl)benzohydrazide trifluoroacetate] yielded an IC50 of 15 to 150 nM.

With `CCN(CCCNC(=O)OC(C)(C)C)Cc1ccc(C(=O)NN(c2nc(C#N)ncc2Cl)C2CCCC2)cc1` [Example 81, 1,1-dimethylethyl {3-[[(4-{[2-(5-chloro-2-cyano-4-pyrimidinyl)-2-cyclopentylhydrazino]carbonyl}phenyl)methyl](ethyl)amino]propyl}carbamate], the IC50 is 2.5 to 15 nM.

Take `CN1CCN(C2CCN(Cc3ccc(C(=O)NN(c4nc(C#N)ncc4Br)C4CCN(C(=O)OCc5ccccc5)CC4)cc3)CC2)CC1` [Example 48, Phenylmethyl 4-{1-(5-bromo-2-cyano-4-pyrimidinyl)-2-[(4-{[4-(4-methyl-1-piperazinyl)-1-piperidinyl]methyl}phenyl)carbonyl]hydrazino}-1-piperidinecarboxylate triflouroacetate]: the IC50 lay within 15 to 150 nM.

With `N#Cc1ncc(Br)c(N(NC(=O)c2cccc(CN3CCC(N4CCOCC4)CC3)c2)C2CCCCC2)n1` [Example 24, N'-(5-bromo-2-cyano-4-pyrimidinyl)-N'-cyclohexyl-3-{[4-(4-morpholinyl)-1-piperidinyl]methyl}benzohydrazide trifluoroacetate], the concentration for half-maximal inhibition (IC50) lay within 2.5 to 15 nM.

In turn, `CN(C)Cc1ccc(C(=O)NN(c2nc(C#N)ncc2Cl)C2CCCC2)cc1` [Example 54, N'-(5-chloro-2-cyano-4-pyrimidinyl)-N'-cyclopentyl-4-[(dimethylamino)methyl]benzohydrazide trifluoroacetate] came in with an IC50 of 15 to 150 nM.

In the case of `CN1CCC(CN2CCN(Cc3ccc(C(=O)NN(c4nc(C#N)ncc4Br)C4CCOCC4)cc3)CC2)CC1` [Example 30, N'-(5-Bromo-2-cyano-4-pyrimidiny)-4-({4-[(1-methyl-4-piperidinyl)methyl]-1-piperazinyl}methyl)-N'-(tetrahydro-2H-pyran-4-yl)benzohydrazide trifluoroacetate], the IC50 was in the range of 15 to 150 nM.

For the molecule `CN(CCO)Cc1ccc(C(=O)NN(c2nc(C#N)ncc2Cl)C2CCCC2)cc1` [Example 58, N'-(5-chloro-2-cyano-4-pyrimidinyl)-N'-cyclopentyl-4-{[(2-hydroxyethy)(methyl)amino]methyl}benzohydrazide trifluoroacetate], the IC50 lay in the range of 15 to 150 nM.

Consider `CN1CCN(Cc2ccc(C(=O)NN(c3nc(C#N)ncc3Cl)C3CCCCC3)cc2)CC1` [Example 51, N'-(5-chloro-2-cyano-4-pyrimidinyl)-N'-cyclohexyl-4-[(4-methyl-1-piperazinyl)methyl]benzohydrazide trifluoroacetate], for which the IC50 was in the range of 15 to 150 nM.

As to `CN1CCCC(CN2CCN(Cc3ccc(C(=O)NN(c4nc(C#N)ncc4Br)C4CCCCC4)cc3)CC2)C1` (stereo not shown) [Example 25, N'-(5-bromo-2-cyano-4-pyrimidinyl)-N'-cyclohexyl-4-({4-[(1-methyl-3-piperidinyl)methyl]-1-piperazinyl}methyl)benzohydrazide trifluoroacetate], the IC50 fell in the range of 2.5 to 15 nM.

Turning to `CN(Cc1ccc(C(=O)NN(c2nc(C#N)ncc2Cl)C2CCCC2)cc1)C(C)(C)C` [Example 73, N'-(5-chloro-2-cyano-4-pyrimidinyl)-N'-cyclopentyl-4-{[(1,1-dimethylethyl)(methyl)amino]methyl}benzohydrazide trifluoroacetate], the IC50 was in the range of 2.5 to 15 nM.

Molecule `CN(Cc1ccc(C(=O)NN(c2nc(C#N)ncc2Cl)C2CCCC2)cc1)CC(O)CO` (stereo not shown) [Example 76, N'-(5-chloro-2-cyano-4-pyrimidinyl)-N'-cyclopentyl-4-{[(2,3-dihydroxypropyl)(methyl)amino]methyl}benzohydrazide trifluoroacetate] displayed an IC50 of 15 to 150 nM.

With `CCCCN(C)Cc1ccc(C(=O)NN(c2nc(C#N)ncc2Cl)C2CCCC2)cc1` [Example 57, 4-{[butyl(methyl)amino]methyl}-N'-(5-chloro-2-cyano-4-pyrimidinyl)-N'-cyclopentylbenzohydrazide trifluoroacetate], the IC50 lay within 15 to 150 nM.

The same test, now with this note: dihydrochloride.
Take `CN1CCN(C2CCN(Cc3ccc(C(=O)NN(c4nc(C#N)ncc4Cl)C4CCCCC4)cc3)CC2)CC1` [Example 41, N'-(5-chloro-2-cyano-4-pyrimidinyl)-N'-cyclohexyl-4-{[4-(4-methyl-1-piperazinyl)-1-piperidinyl]methyl}benzohydrazide dihydrochloride]: the IC50 was in the range of 1 to 2.5 nM.
